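Following 48 hours of exposure in 96-well plates, responses at five concentrations were used to interpolate endpoints linearly. The concentration for 50% growth inhibition is given as GI50.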 Active and inactive are the calls of the source. No stated cut-off is given here; in the data, active = GI50 up to about 1.1 µM and inactive = higher.
Experiments:
Assay in all cases: inhibition of tumour cell growth, NCI panel, 48 h
SNB-19 = system: SNB-19
OVCAR-3 = system: OVCAR-3
M14 = system: M14
MOLT-4 = system: MOLT-4
RXF 393 = system: RXF 393
COLO 205 = system: COLO 205
OVCAR-8 = system: OVCAR-8
SR = system: SR
Malme-3M = system: Malme-3M
MDA-MB-231 = system: MDA-MB-231
HCT-116 = system: HCT-116
DU-145 = system: DU-145
SNB-75 = system: SNB-75
RPMI-8226 = system: RPMI-8226
UO-31 = system: UO-31
NCI-H522 = system: NCI-H522
UACC-257 = system: UACC-257
SK-MEL-2 = system: SK-MEL-2
HOP-62 = system: HOP-62
NCI-H23 = system: NCI-H23
NCI/ADR-RES = system: NCI/ADR-RES
786-0 = system: 786-0
Hs-578T = system: Hs-578T
HCT-15 = system: HCT-15
U-251 = system: U-251
IGROV-1 = system: IGROV-1
PC-3 = system: PC-3
HCC 2998 = system: HCC 2998
KM12 = system: KM12
K562 = system: K562
HL-60 = system: HL-60
MDA-MB-435 = system: MDA-MB-435
MCF7 = system: MCF7
CCRF-CEM = system: CCRF-CEM
EKVX = system: EKVX
UACC-62 = system: UACC-62
NCI-H460 = system: NCI-H460
SF-295 = system: SF-295
A498 = system: A498
SN12C = system: SN12C
LOX IMVI = system: LOX IMVI
SF-539 = system: SF-539
OVCAR-4 = system: OVCAR-4
ACHN = system: ACHN
TK-10 = system: TK-10
NCI-H226 = system: NCI-H226
SK-OV-3 = system: SK-OV-3
SK-MEL-5 = system: SK-MEL-5
SF-268 = system: SF-268
HT-29 = system: HT-29
SK-MEL-28 = system: SK-MEL-28
OVCAR-5 = system: OVCAR-5
SW-620 = system: SW-620
A549 = system: A549
CAKI-1 = system: CAKI-1
MDA-N = system: MDA-N

With Cc1cc(N(C)c2ccccc2)nc(N(C)c2ccccc2)n1 the GI50 (SNB-19) was 88.1 µM (inactive), the GI50 (OVCAR-3) was 33 µM (inactive) and the GI50 (M14) was 41.3 µM (inactive). The GI50 (MOLT-4) was 33.7 µM (inactive), the GI50 (RXF 393) was 22 µM (inactive) and the GI50 (COLO 205) was 23.9 µM (inactive). The GI50 (OVCAR-8) was 33 µM (inactive), the GI50 (SR) was 27.7 µM (inactive) and the GI50 (Malme-3M) was 26.9 µM (inactive). The GI50 (MDA-MB-231) was 33.2 µM (inactive), the GI50 (HCT-116) was 19.6 µM (inactive) and the GI50 (DU-145) was 92.3 µM (inactive). The GI50 (SNB-75) was 41.1 µM (inactive), the GI50 (RPMI-8226) was 28.8 µM (inactive) and the GI50 (UO-31) was 80.2 µM (inactive). The GI50 (NCI-H522) was 36.9 µM (inactive), the GI50 (UACC-257) was 25.4 µM (inactive) and the GI50 (SK-MEL-2) was 15.8 µM (inactive). The GI50 (HOP-62) was 31.2 µM (inactive), the GI50 (NCI-H23) was 36.7 µM (inactive) and the GI50 (NCI/ADR-RES) was 58.3 µM (inactive). The GI50 (786-0) was 41.3 µM (inactive), the GI50 (Hs-578T) was 26.8 µM (inactive) and the GI50 (HCT-15) was 32.1 µM. The GI50 (U-251) was 30.7 µM (inactive), the GI50 (IGROV-1) was 39 µM (inactive) and the GI50 (PC-3) was 43.3 µM (inactive). The GI50 (HCC 2998) was 36.9 µM (inactive), the GI50 (KM12) was 18.1 µM (inactive) and the GI50 (K562) was 49.9 µM (inactive). For the same compound, the GI50 (HL-60) was 37.8 µM (inactive), the GI50 (MDA-MB-435) was 42.9 µM (inactive) and the GI50 (MCF7) was 33.7 µM (inactive). For the same compound, the GI50 (CCRF-CEM) was 23.6 µM (inactive), the GI50 (EKVX) was 36.1 µM (inactive) and the GI50 (UACC-62) was 28.6 µM (inactive). For the same compound, the GI50 (NCI-H460) was 49.9 µM (inactive), the GI50 (SF-295) was 20.2 µM (inactive) and the GI50 (A498) was 64.9 µM (inactive). The GI50 (SN12C) was 46.8 µM (inactive), the GI50 (LOX IMVI) was 13.3 µM (inactive) and the GI50 (SF-539) was 27.1 µM (inactive). The GI50 (OVCAR-4) was > 100 µM (inactive), the GI50 (ACHN) was 28.4 µM (inactive) and the GI50 (TK-10) was 55.7 µM (inactive). The GI50 (NCI-H226) was 34.6 µM (inactive), the GI50 (SK-OV-3) was > 100 µM (inactive) and the GI50 (SK-MEL-5) was 27.1 µM (inactive). The GI50 (SF-268) was 54 µM (inactive), the GI50 (HT-29) was 17.9 µM (inactive) and the GI50 (SK-MEL-28) was 35.5 µM (inactive). For the same compound, the GI50 (OVCAR-5) was 21.2 µM (inactive), the GI50 (SW-620) was 43.1 µM (inactive) and the GI50 (A549) was 27.5 µM (inactive). The GI50 (CAKI-1) was > 100 µM (inactive) and the GI50 (MDA-N) was 52.4 µM (inactive).

With COc1ccc(N[S+]([O-])c2cccc(C)c2)cc1 (configuration not stated) the GI50 (SNB-19) was > 100 µM (inactive), the GI50 (OVCAR-3) was > 100 µM (inactive) and the GI50 (M14) was > 100 µM (inactive). For the same compound, the GI50 (MOLT-4) was 35.3 µM (inactive), the GI50 (RXF 393) was 54.5 µM (inactive) and the GI50 (COLO 205) was 59.6 µM (inactive). The GI50 (OVCAR-8) was 52.1 µM (inactive), the GI50 (SR) was 35.9 µM (inactive) and the GI50 (Malme-3M) was 75.5 µM (inactive). For the same compound, the GI50 (MDA-MB-231) was 48.5 µM (inactive), the GI50 (HCT-116) was 32.7 µM (inactive) and the GI50 (DU-145) was > 100 µM (inactive). For the same compound, the GI50 (SNB-75) was > 100 µM (inactive), the GI50 (RPMI-8226) was 26.2 µM (inactive) and the GI50 (UO-31) was 20.4 µM (inactive). For the same compound, the GI50 (NCI-H522) was 8.59 µM (inactive), the GI50 (UACC-257) was > 100 µM (inactive) and the GI50 (HOP-62) was 64 µM (inactive). For the same compound, the GI50 (NCI-H23) was > 100 µM (inactive), the GI50 (NCI/ADR-RES) was 14 µM (inactive) and the GI50 (786-0) was > 100 µM (inactive). The GI50 (Hs-578T) was 87.9 µM (inactive), the GI50 (HCT-15) was 5.21 µM and the GI50 (U-251) was 79.1 µM (inactive). The GI50 (IGROV-1) was 28.3 µM (inactive), the GI50 (PC-3) was > 100 µM (inactive) and the GI50 (HCC 2998) was 3.88 µM (inactive). The GI50 (KM12) was 17.5 µM (inactive), the GI50 (K562) was 9.73 µM (inactive) and the GI50 (HL-60) was 25.7 µM (inactive). For the same compound, the GI50 (MDA-MB-435) was 34.9 µM (inactive), the GI50 (MCF7) was 75.5 µM (inactive) and the GI50 (CCRF-CEM) was 48 µM (inactive). The GI50 (EKVX) was 12.2 µM (inactive), the GI50 (NCI-H460) was 30 µM (inactive) and the GI50 (SF-295) was > 100 µM (inactive). For the same compound, the GI50 (SN12C) was > 100 µM (inactive), the GI50 (LOX IMVI) was 17.3 µM (inactive) and the GI50 (SF-539) was 27.8 µM (inactive). For the same compound, the GI50 (ACHN) was 7.76 µM (inactive), the GI50 (TK-10) was > 100 µM (inactive) and the GI50 (NCI-H226) was > 100 µM (inactive). The GI50 (SK-MEL-5) was 25.6 µM (inactive), the GI50 (SF-268) was 30.5 µM (inactive) and the GI50 (HT-29) was 92.9 µM (inactive). The GI50 (SK-MEL-28) was 33 µM (inactive), the GI50 (OVCAR-5) was > 100 µM (inactive) and the GI50 (SW-620) was 57.5 µM (inactive). For the same compound, the GI50 (A549) was 29.3 µM (inactive), the GI50 (CAKI-1) was 98.6 µM (inactive) and the GI50 (MDA-N) was > 100 µM (inactive).

Reference: ChEMBL document CHEMBL1201862, “PubChem BioAssay data set” (2004)
